# Assay results as given in patent publication US20110257130A1 (priority 2008, published 2011).
# Read-outs that look alike come from different tables or passages of the source.
# Legend:
# [1] = test system: spontaneously hypertensive stroke prone rats (SHRSP); experiment: blood pressure by intra-arterial catheter / radio-telemetry in hypertension model; assay type: in vivo, rat
# Excerpt: To determine the effect of prolyl lipoic acid (Formula (III)) in an animal model of hypertension, spontaneously hypertensive stroke prone rats (SHRSP) were first procured from Charles River at the age of 6 weeks (Charles River Laboratories, Wilmington, Mass., U.S.A.). After a period of acclimatization for 4 weeks, the rats were then implanted with intra-arterial catheters in the abdominal aorta along with a radio-telemetry monitoring device to assess systolic blood pressure. Briefly, to implant the radio-telemetry devices, the operative procedure involved anesthetizing the animals with 375 mg/kg of 2,2,2-tribromoethanol (Sigma Chemical Co., St. Louis, Mo.). An incision was then made in the abdomen and the aorta was exposed. A 0.4 mm catheter attached to a combination pressure transducer, transmitter, and battery, all encapsulated in a implantable micro-miniature electronic monitor (PA-C20, Data Sciences International, St. Paul, Minn.), was then inserted.
# Following implantation of the radio-telemetry devices, the animals were allowed to recover and the aortic pressure of each animal was monitored continuously. Once the animals sufficiently recovered, the rats then received 50 mg/kg of prolyl lipoic acid, dissolved in aqueous media, in a single dose. The blood pressures were then measured over a period of 12 hours and compared to the previous 12 hour period. […]
# During the 6 week experimental period, blood pressure measurements were performed in a sub-group of 4 animals randomized to prolyl lipoic acid by intra-arterial catheter placement in the infra-renal aorta and acute administration of the prolyl lipoic acid prior to administration of drug. Additionally, four SHRSP rats (12 weeks old) were implanted with radio-telemetry transmitters (DataSciences Inc., St. Paul, Minn.) into their abdominal aortas and blood pressure was measured using the DSI system (DataSciences Inc.). In these later experiments, blood pressure was recorded continuously over 24-hour periods and reported as the change in blood pressure in the 12-hour period following the administration of the agent.
# [2] = test system: spontaneously hypertensive stroke prone rats (SHRSP); experiment: endothelial function by myography of aortic segments after 6 weeks of treatment; assay type: in vivo, rat; conditions: 50 mg/kg daily IP, pre-contraction 0.3 μM phenylephrine
# Procedure: (§1) To further examine the effects of prolyl lipoic acid (Formula (III)) on hypertension, the effect of prolyl lipoic acid was examined in spontaneously hypertensive rats over a longer time period. Briefly, spontaneously hypertensive rats (SHRSP rats, 10 weeks of age, n=10/group) were randomized to placebo or prolyl lipoic acid (50 mg/kg) groups for a duration of 6 weeks. The animals were housed 2 to a cage and were given Harlan-Teklad Laboratory Rodent Diet ad libitum (Harlan Laboratories, Indianapolis, Ind.). Prolyl lipoic acid or saline placebo was administered to the rats by daily intraperitoneal (IP) dosing.
# Following the completion of the six week period, the animals were euthanized at week 17 by lethal pentobarbital injection and tissues were removed from the animal. Upon removal of the tissues, endothelial function was assessed. It is known that endothelial function can refer to the unimpaired production of or availability of NO and/or a balance in the relative contribution of endothelium-derived relaxing and contracting factors (such as ET-1, angiotensin, and oxidants). […] As such, once the tissues were removed from the animals, endothelial cell function was assessed in the experimental groups by myography as percent-relaxation to acetylcholine or sodium nitroprusside subsequent to pre-contraction with 0.3 μM phenylephrine.
# [3] = molecular target: Angiotensin Converting Enzyme (ACE) (UniProt P12822); experiment: fluorimetric ACE assay with HHL substrate, 96-well format; assay type: biochemical; conditions: for reduction of ACE activity (formation of L-histidyl-L-leucine): compound incubated with enzyme at 37° C. for 30 min
# Chain of Angiotensin Converting Enzyme (ACE) (P12822 whole entry): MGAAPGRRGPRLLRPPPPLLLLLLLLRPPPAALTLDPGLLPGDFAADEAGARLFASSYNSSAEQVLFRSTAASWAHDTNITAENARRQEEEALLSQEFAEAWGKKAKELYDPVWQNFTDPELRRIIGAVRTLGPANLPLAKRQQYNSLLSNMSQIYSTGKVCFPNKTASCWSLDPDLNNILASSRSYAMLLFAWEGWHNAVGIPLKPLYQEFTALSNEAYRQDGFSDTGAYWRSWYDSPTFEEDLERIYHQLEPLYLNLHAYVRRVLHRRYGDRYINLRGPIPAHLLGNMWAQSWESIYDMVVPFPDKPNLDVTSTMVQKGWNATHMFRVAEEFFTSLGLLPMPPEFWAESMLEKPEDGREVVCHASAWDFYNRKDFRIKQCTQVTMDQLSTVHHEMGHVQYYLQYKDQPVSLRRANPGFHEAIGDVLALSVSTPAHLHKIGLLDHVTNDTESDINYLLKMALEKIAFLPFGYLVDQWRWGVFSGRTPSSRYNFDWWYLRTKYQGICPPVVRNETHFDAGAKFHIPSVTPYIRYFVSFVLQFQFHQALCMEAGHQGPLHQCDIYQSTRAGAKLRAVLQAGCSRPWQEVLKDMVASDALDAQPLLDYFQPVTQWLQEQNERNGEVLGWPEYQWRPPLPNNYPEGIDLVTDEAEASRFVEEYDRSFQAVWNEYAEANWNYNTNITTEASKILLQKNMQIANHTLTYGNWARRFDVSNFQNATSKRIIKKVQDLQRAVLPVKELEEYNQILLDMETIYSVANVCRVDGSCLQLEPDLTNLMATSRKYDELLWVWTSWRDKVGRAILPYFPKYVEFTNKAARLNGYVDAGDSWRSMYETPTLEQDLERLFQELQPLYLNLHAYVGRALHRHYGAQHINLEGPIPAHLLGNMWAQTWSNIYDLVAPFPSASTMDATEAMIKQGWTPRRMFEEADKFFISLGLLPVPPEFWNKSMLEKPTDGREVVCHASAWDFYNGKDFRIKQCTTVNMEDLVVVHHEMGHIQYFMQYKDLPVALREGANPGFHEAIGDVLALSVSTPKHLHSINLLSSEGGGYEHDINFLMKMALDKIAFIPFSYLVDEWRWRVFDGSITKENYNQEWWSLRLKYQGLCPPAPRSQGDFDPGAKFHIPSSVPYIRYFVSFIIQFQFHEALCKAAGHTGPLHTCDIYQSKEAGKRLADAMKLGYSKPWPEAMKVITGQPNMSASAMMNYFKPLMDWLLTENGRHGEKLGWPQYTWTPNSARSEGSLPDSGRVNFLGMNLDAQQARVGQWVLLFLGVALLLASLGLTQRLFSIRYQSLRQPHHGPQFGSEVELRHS
# Procedure: To determine whether the compounds of the presently-disclosed subject matter were capable of reducing the enzymatic activity of Angiotensin Converting Enzyme (ACE), an ACE assay was carried out according to the standard protocols (see, e.g., Schwager, et al. A high-throughput fluorimetric assay for angiotensin I-converting enzyme, Nature Protocols, 2006; 1 (4): 1961-1964, which is incorporated herein by this reference). The ACE assay involved a fluorimetric procedure in which the substrate hippury-L-histidyl-L-leucine (HHL) was used, and the fluorescent adduct of the enzyme-catalyzed product L-histidyl-L-leucine was quantified fluorimetrically. […] The results from the assay were analyzed in a 96-well plate reader with each concentration measured in triplicate.
# Briefly, in a total of 250 μL assay volume, 10 μL of ACE enzyme (Sigma Chemical Co., St. Louis, Mo.) and 10 μL of either 1-(6,8-dimercaptooctanyl)pyrrolidine-2-carboxylic acid or prolyl lipoic acid (Formula (III) was added. Both compounds were incubated with enzyme at 37° C. for 30 min. The ACE substrate HHL, 6 μL in buffer, was then added to each well followed by incubation at 45° C. for 30 min. 170 μL of 0.3M sodium hydroxide solution was added to above solution followed by the addition of phalaldehyde solution in methanol. The mixture was then allowed to shake for 5 min. This step was followed by the addition of 32 μL of 2N hydrochloric acid to each well and subsequent measurement of the fluorescence at an excitation wavelength of 360 nm and an emission wavelength of 480 nm. Three controls were used to compare the readings, with the controls including wells without the enzyme, wells without the compounds, and wells without the HHL enzymatic substrate.
# To further examine the IC50 value in relation to the absolute amounts of thiol groups of the 1-(6,8-dimercaptooctanyl)pyrrolidine-2-carboxylic acid compound, however, the amount of thiol groups in the reaction mixtures was also measured according to Ellman's method (see, e.g. Simpson R J, Estimation of free thiols and disulfide bonds using Ellman's reagent, CSHL Press, Cold Spring Harbor, N.Y., 2003; and, Ellman G L, Tissue sulfhydral groups, Arch. Biochem. Biophys., 1959; 82: 70-77, each of which are incorporated herein by this reference). […] The TNB^2− can then be quantified in a spectrophotometer by measuring the absorbance of visible light at 412 nm, using an extinction coefficient of 14,150M^−1 cm^−1 for dilute buffer solutions, and a coefficient of 13,700 M^−1 cm^−1 for high salt concentrations, such as 6 M guanidinium hydrochloride or 8 M urea. […] The absorbance was measured at 412 nm. […]
# [4] = test system: spontaneously hypertensive stroke prone rats (SHRSP); experiment: histology of organ sections (H&E wall thickness, CD68 staining) after 6 weeks of treatment; assay type: in vivo, rat; conditions: 50 mg/kg daily IP
# Procedure: as §1
# Additionally, four to eight sections of each organ were stained with CD68 or H&E for 10 animals (5 in each group) and images were obtained at 200× by bright-field microscopy. MetaMorph software was used for automated thresholding. The percentage of thresholded area of the picture was recorded and reported. Additionally, about 12 organ sections per rat were prepared for 10 of the rats (5 in each group). These sections were 5 microns in size and were stained with hematoxylin and eosin (H&E). Images were obtained at 40× (using bright-field microscopy and analyzed using MetaMorph software. For each image, the external elastic lamina of the aorta was traced using a drawing tool, and this area was logged. The luminal area was also measured. Thus, the tunica intima and tunica media were included in these measurements, not tunica adventitia. The wall thickness was calculated by subtracting the luminal area from the wall area.
# [5] = test system: inflammatory genes (ICAM1, IL-6, IL-1β, MCP1, TGF-β1, VCAM1, TNF-α); experiment: inflammatory gene expression (mRNA transcript levels) in tissues after 6 weeks of treatment; assay type: in vivo, rat; conditions: 50 mg/kg daily IP
# Procedure: as §1
# Furthermore, inflammatory gene expression was assessed in the aorta, heart, brain and kidney by probing for mRNA transcript levels of the various inflammatory genes. Aortic and cardiac collagen synthesis was also assessed by Picrosirius Red staining and Massom-Trichrome staining and quantified by an automated thresholding program.
# [6] = test system: pre-constricted rat aortic segments; experiment: vasodilation of phenylephrine pre-constricted aortic rings in myograph; parameters: species or system male Sprague-Dawley Rats; conditions: for relaxation of pre-constricted rat aortic segments: phenylephrine 0.1 μM pre-constriction, after 4-hour incubation with 44 mM glucose
# Procedure: To determine the effect of lipoic acid and prolyl lipoic acid (Formula (III)) on vasodilation, aortas from male Sprague-Dawley Rats (n=2) were utilized. Briefly, each animal was first sacrificed and their aortas were removed. The aortas were then incubated in phosphate-buffered-saline (PBS) containing 44 mM glucose for 4 hours. Eight 5-mm ring segments of thoracic aorta were then suspended in a myograph chamber filled with a Krebs buffer of the following composition: NaCl, 118.3; KCl, 4.69; CaCl2, 1.87; MgSO4, 1.20; K2HPO4, 1.03; NaHCO3 25.0; and glucose 11.1; all values in mM, pH 7.40. During the following hour, the resting tension was increased to optimize constrictions due to exposure to KCl. The vessel segments were then pre-constricted with phenylephrine (PE; 0.1 μM) and were subjected to prolyl lipoic acid (Formula (III)) or lipoic acid. Vasodilation in the rat aortic rings in response to L-prolyl lipoic acid (1×10^−4 M) or lipoic acid (1×10^−4 M) (both dissolved in aqueous media) was then measured after a 4-hour incubation with glucose (44 mM). Endothelial cell function in the aortic rings was also measured by pre-constricting the aortic rings to the EC50 of phenylephrine and then subjecting the rings to a maximum acetylcholine dose (10^−5M).
smiles,measurement,setting,value
"O=C(O)C1CCCN1C(=O)CCCCC1CCSS1 [prolyl lipoic acid, L-prolyl lipoic acid]",blood pressure after a single dose,"[1]; 50 mg/kg single dose, 12 hours after versus previous 12 hour period",significantly reduced blood pressure
same,effects on blood pressure relative to captopril,[1]; 50 mg/kg versus captopril 100 mg/kg (FIG. 20),"comparable to the angiotensin converting enzyme inhibitor, captopril"
same,"blood pressure, acute administration","[1]; 50 mg/kg, SHRSP rats, FIGS. 18-19",acutely lowered blood pressure
same,endothelial function (relaxation to acetylcholine or sodium nitroprusside),[2],improved endothelial function
same,reduction of ACE activity (formation of L-histidyl-L-leucine),[3],effectively reduce ACE activity
same,CD68 expression in the brain,[4],without affecting CD68 expression
same,CD68 expression in the kidneys,[4],without affecting CD68 expression
same,CD68 expression in the myocardium,[4],without affecting CD68 expression
same,inflammatory cell recruitment to the heart,[4],favorable effects
same,inflammatory cell recruitment to the kidney,[4],favorable effects
same,aortic medial hypertrophy,[4]; H&E sections,effects in reducing aortic medial hypertrophy
same,inflammatory gene expression in aorta,[5]; aorta,markedly reduced inflammatory gene expression
same,ICAM1 expression in brain,[5]; brain,some reductions in expression
same,IL-6 expression in brain,[5]; brain,some reductions in expression
same,reduction in inflammatory gene expression in brain,"[5]; brain, compared with other tissues",not as pronounced
same,inflammatory gene expression in heart,[5]; heart,markedly reduced inflammatory gene expression
same,inflammatory gene expression in kidney,[5]; kidney,markedly reduced inflammatory gene expression
same,relaxation of pre-constricted rat aortic segments,[6]; 1×10^−4 M,relaxed pre-constricted rat aortic segments
same,relaxation as compared to lipoic acid,"[6]; 1×10^−4 M, same aortic ring test (FIG. 15)",increase in relaxation as compared to lipoic acid
same,endothelial function in aortic rings (vasodilation following acetylcholine),"[6]; rings pre-constricted to EC50 of phenylephrine, acetylcholine 10^−5M",improve endothelial function
O=C(O)C1CCCN1C(=O)CCCCC(S)CCS (stereo not drawn),reduction of ACE activity (formation of L-histidyl-L-leucine),[3],effectively reduce ACE activity
same,IC50,"[3]; corrected for thiol content by Ellman's method, read-out: IC50 value recalculated after thiol quantification",6.6 µM
same,IC50,"[3]; from plot of fluorescence counts against concentration (FIG. 13), read-out: IC50 value, initially found",~29 µM
"O=C(O)CCCCC1CCSS1 (stereo not drawn) [lipoic acid, alpha lipoic acid, reference compound]",relaxation of pre-constricted rat aortic segments,[6]; 1×10^−4 M,relaxed pre-constricted rat aortic segments
